13 compounds from patent US20210032253A1, “PYRAZOLO[1,5-A][1,3,5]TRIAZINE-2-AMINE DERIVATIVE, PREPARATION METHOD THEREFOR AND MEDICAL USE THEREOF” (JIANGSU HENGRUI MEDICINE CO., LTD., priority 2018, published 2021) can be followed below.

What all share (assay type): cell-based
Assay [1] has as its target T1, adenosine A2a receptor (A2aR) (Homo sapiens, UniProt P29274).
T1 construct: expressed in transfected cells; host or cells: CHO-K1
In words: Inhibition of adenosine A2a receptor cAMP signaling pathway in CHO-K1/A2aR cells (HTRF cAMP dynamic 2 kit). Particulars: Table 1, 20 nM ethylcarbazole. The source says: (§1) Test Example 1. Determination of the inhibitory activities of the compounds of the present disclosure on the adenosine A2a receptor (A2aR) cAMP signaling pathway, the adenosine A1 receptor (A1R) cAMP signaling pathway and the adenosine A3 receptor (A3R) cAMP signaling pathway.
(§2) The inhibitory activities of the compounds of the present disclosure on the adenosine A2a receptor (A2aR) cAMP signaling pathway, the adenosine A1 receptor cAMP signaling pathway and the adenosine A3 receptor cAMP signaling pathway were determined by the following methods. The experimental method is briefly described as follows:
CHO-K1/A2aR cells were cultured in DMEM/F12 medium containing 10% fetal bovine serum and 800 μg/mL Zeocin™. The cells were digested with the cell dissociation buffer during the experiment. The cells were resuspended in the HBSS buffer containing 20 mM HEPES and 0.1% bovine serum albumin and counted, and the cell density was adjusted to 10^6 cells/mL. In 384-well plates, each well was added with 5 μL of the cell suspension, and 2.5 µL of test compounds (4× concentration) formulated with the HBSS buffer containing 20 mM HEPES, 0.1% bovine serum albumin, 54 μM rolipram and 2.7 U/mL adenosine deaminase, and the plates were incubated at room temperature for 30 minutes. Each well was then added with 2.5 μL of ethylcarbazole (4× concentration) formulated with the balanced salt buffer containing 20 mM HEPES, 0.1% bovine serum albumin, 54 μM rolipram and 2.7 U/mL adenosine deaminase, and the plates were incubated at room temperature for 30 minutes. The final concentrations of the compounds were: 10000, 2000, 400, 80, 16, 3.2, 0.64, 0.128, 0.0256, 0.00512, and 0.001024 nM. The final concentration of ethylcarbazole was 20 nM. Intracellular cAMP concentration was determined with cAMP dynamic 2 kits. cAMP-d2 and Anti-cAMP—Eu-Cryptate were diluted respectively with the cAMP lysis buffer at a ratio of 1:4. Each well was added with 5 μL of the diluted cAMP-d2, followed by addition of 5 μL of the diluted Anti-cAMP—Eu-Cryptate, and the plates were incubated at room temperature in the dark for 1 hour. The HTRF signal values were read by the PHERAstar multi-function microplate reader.

For assay [2], the target named is T2, adenosine A3 receptor (A3R) (Homo sapiens, UniProt P0DMS8).
T2 construct: expressed in transfected cells; host or cells: CHO-K1
T2 sequence (P0DMS8 1-318): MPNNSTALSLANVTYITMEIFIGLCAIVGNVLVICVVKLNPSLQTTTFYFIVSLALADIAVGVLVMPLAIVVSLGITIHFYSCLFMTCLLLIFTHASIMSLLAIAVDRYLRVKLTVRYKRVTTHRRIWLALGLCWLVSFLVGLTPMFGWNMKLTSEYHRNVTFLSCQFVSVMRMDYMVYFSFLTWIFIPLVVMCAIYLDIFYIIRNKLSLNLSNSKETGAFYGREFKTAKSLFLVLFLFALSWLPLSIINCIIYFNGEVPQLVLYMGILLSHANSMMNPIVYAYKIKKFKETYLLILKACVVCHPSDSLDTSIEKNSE
In words: Inhibition of adenosine A3 receptor cAMP signaling pathway in CHO-K1/A3R cells (HTRF cAMP dynamic 2 kit). The following applies: Table 3; for IC50: CHO-K1/A3R cells, cAMP, 10 μM forskolin, 5 nM 2Cl-IB-MECA; for IC50 ratio (A3R/A2aR): selectivity A3R over A2aR.
Source text: as §1, §2
CHO-K1/A3R cells were cultured in DMEMIF12 medium containing 10% fetal bovine serum and 10 μg/mL puromycin. The cells were digested with the cell dissociation buffer during the experiment. The cells were resuspended in the HBSS buffer containing 20 mM HEPES and 0.1% bovine serum albumin and counted, and the cell density was adjusted to 5×10^5 cells/mL. In 384-well plates, each well was added with 12.5 μL of the cell suspension, and 6.25 μL of the test compounds (4× concentration) formulated with the HBSS buffer containing 20 mM HEPES, 0.1% bovine serum albumin, 54 μM rolipram and 2.7 U/mL adenosine deaminase, and the plates were incubated at room temperature for 30 minutes. Each well was then added with 6.25 μL of forskolin and 2Cl-IB-MECA (4× concentration) formulated with the HBSS buffer containing 20 mM HEPES, 0.1% bovine serum albumin, […] rolipram and 2.7 U/mL adenosine deaminase, and the plates were incubated at room temperature for 30 minutes. The final concentrations of the compounds were: 100000, 10000, 1000, 100, 10, 1, 0.1 and 0 nM. The final concentration of forskolin was 10 μM. The final concentration of 2Cl-IB-MECA was 5 nM. Intracellular cAMP concentration was determined with cAMP dynamic 2 kits. cAMP-d2 and Anti-cAMP—Eu-Cryptate were diluted respectively with the cAMP lysis buffer at a ratio of 1:4. Each well was added with 12.5 μL of the diluted cAMP-d2, followed by addition of 12.5 μL of the diluted Anti-cAMP—Eu-Cryptate, and the plates were incubated at room temperature in the dark for 1 hour. The HTRF signal values were read by the PHERAstar multi-function microplate reader. IC50 values for the inhibitory activities of the compounds were calculated by Graphpad Prism software, and are shown in Table 3.
(In general: TR-FRET usually uses a lanthanide donor and a delayed reading to cut background.)

In assay [3] the target is T3, adenosine A1 receptor (A1R) (Homo sapiens, UniProt P30542).
T3 construct: expressed in transfected cells; host or cells: CHO-K1
T3 sequence (P30542 1-326): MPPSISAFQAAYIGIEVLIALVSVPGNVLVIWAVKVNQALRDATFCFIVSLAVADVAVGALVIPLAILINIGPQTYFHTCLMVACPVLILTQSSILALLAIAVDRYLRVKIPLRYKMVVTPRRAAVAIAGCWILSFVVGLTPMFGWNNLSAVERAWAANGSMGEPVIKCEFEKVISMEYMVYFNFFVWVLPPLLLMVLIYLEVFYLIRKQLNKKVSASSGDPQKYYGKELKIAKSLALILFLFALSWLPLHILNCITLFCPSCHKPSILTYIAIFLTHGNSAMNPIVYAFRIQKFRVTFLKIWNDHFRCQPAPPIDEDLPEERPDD
Description: Inhibition of adenosine A1 receptor cAMP signaling pathway in CHO-K1/A1R cells (HTRF cAMP dynamic 2 kit). The following applies: Table 2; for IC50: CHO-K1/A1R cells, cAMP, 10 μM forskolin, 10 nM CPA; for IC50 ratio (A1R/A2aR): selectivity A1R over A2aR.
Source text: as §1, §2
CHO-K1/A1R cells were cultured in DMEMIF12 medium containing 10% fetal bovine serum and 1 mg/mL G418. The cells were digested with the cell dissociation buffer during the experiment. The cells were then resuspended in the HBSS buffer containing 20 mM HEPES and 0.1% bovine serum albumin and counted, and the cell density was adjusted to 5×10^5 cells/mL. In 384-well plates, each well was added with 12.5 μL of the cell suspension, and 6.25 μL of the test compounds (4× concentration) formulated with the HBSS buffer containing 20 mM HEPES, 0.1% bovine serum albumin, 54 μM rolipram and 2.7 U/mL adenosine deaminase, and the plates were incubated at room temperature for 30 minutes. Each well was then added with 6.25 μL of forskolin and N6-cyclopentyladenosine (4× concentration) formulated with the HBSS buffer containing 20 mM HEPES, 0.1% bovine serum albumin, 54 μM rolipram and 2.7 U/mL adenosine deaminase, and the plates were incubated at room temperature for 30 minutes. The final concentrations of the compounds were: 100000, 10000, 1000, 100, 10, 1, 0.1 and 0 nM. The final concentration of forskolin was 10 μM. The final concentration of CPA was 10 nM. Intracellular cAMP concentration was determined with cAMP dynamic 2 kits. cAMP-d2 and Anti-cAMP—Eu-Cryptate were diluted respectively with the cAMP lysis buffer at a ratio of 1:4. Each well was added with 12.5 μL of the diluted cAMP-d2, followed by addition of 12.5 μL of the diluted Anti-cAMP—Eu-Cryptate, and the plates were incubated at room temperature in the dark for 1 hour. The HTRF signal values were read by the PHERAstar multi-function microplate reader.

T1 sequence (P29274 whole entry): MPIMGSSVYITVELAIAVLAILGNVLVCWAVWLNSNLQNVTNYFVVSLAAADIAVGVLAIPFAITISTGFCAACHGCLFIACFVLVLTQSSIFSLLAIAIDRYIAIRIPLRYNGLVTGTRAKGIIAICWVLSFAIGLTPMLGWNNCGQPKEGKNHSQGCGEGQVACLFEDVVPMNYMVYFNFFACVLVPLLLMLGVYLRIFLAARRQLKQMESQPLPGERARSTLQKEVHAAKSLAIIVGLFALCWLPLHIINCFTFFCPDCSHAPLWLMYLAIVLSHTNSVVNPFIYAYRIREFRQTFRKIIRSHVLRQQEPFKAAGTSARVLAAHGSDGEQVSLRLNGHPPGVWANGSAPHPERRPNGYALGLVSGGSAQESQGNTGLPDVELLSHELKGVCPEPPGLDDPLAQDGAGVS

For `Cc1ccc(-c2nc(N)nc3c(Cc4cccc(CO)n4)cnn23)o1` [Example 2, (6-((2-Amino-4-(5-methylfuran-2-yl)pyrazolo[1,5-a][1,3,5]triazin-8-yl)methyl)pyridin-2-yl)methanol], the IC50 in assay [1] was 0.87 nM. For the same compound, in assay [2], 2420 nM corresponded to half-maximal inhibition (IC50) and the “IC50 ratio (A3R/A2aR)” value was >10^3. Moreover, in assay [3], the IC50 came out at 1100 nM and the “IC50 ratio (A1R/A2aR)” value was >10^3.
Turning to `COCCOCc1cccc(Cc2cnn3c(-c4ccc(C)o4)nc(N)nc23)n1` [Example 3, 8-((6-((2-Methoxyethoxy)methyl)pyridin-2-yl)methyl)-4-(5-methylfuran-2-yl)pyrazolo[1,5-a][1,3,5]triazin-2-amine], the IC50 was found to be 0.45 nM in assay [1], 4120 nM in assay [2] and 434 nM in assay [3]. Besides, the “IC50 ratio (A3R/A2aR)” value in assay [2] is given as >10^3. Besides, the “IC50 ratio (A1R/A2aR)” value in assay [3] is recorded as 964^.
On to `Cc1ccc(-c2nc(N)nc3c(Cc4ccccc4F)cnn23)o1` [Example 4, 8-(2-Fluorobenzyl)-4-(5-methylfuran-2-yl)pyrazolo[1,5-a][1,3,5]triazin-2-amine], for which the IC50 in assay [1] was determined as 0.14 nM. Moreover, in assay [2], the IC50 is more than 10000 nM and the “IC50 ratio (A3R/A2aR)” value is reported as >10^4.
For the compound `Cc1ccc(-c2nc(N)nc3c(Cc4cccc(CN5CCOCC5)n4)cnn23)o1` [Example 5, 4-(5-Methylfuran-2-yl)-8-((6-(morpholinomethyl)pyridin-2-yl)methyl)pyrazolo[1,5-a][1,3,5]triazin-2-amine], 0.55 nM corresponded to half-maximal inhibition in assay [1] (IC50). Further, in assay [2], inhibition was half-maximal at 2280 nM (IC50) and the “IC50 ratio (A3R/A2aR)” value is given as >10^3. For the same compound, in assay [3], inhibition was half-maximal at 835 nM (IC50) and the “IC50 ratio (A1R/A2aR)” value is >10^3.
On to `Cc1ccc(-c2nc(N)nc3c(Cc4cccc(CO[C@@H]5CCOC5)n4)cnn23)o1` [Example 6, (R)-4-(5-Methylfuran-2-yl)-8-((6-(((tetrahydrofuran-3-yl)oxy)methyl)pyridin-2-yl)methyl)pyrazolo[1,5-a][1,3,5]triazin-2-amine], for which the IC50 in assay [1] amounted to 0.4 nM. In assay [2], it took 4810 nM to reach half-maximal inhibition (IC50) and the “IC50 ratio (A3R/A2aR)” value was >10^3. Moreover, in assay [3], the IC50 was determined as 316 nM and the “IC50 ratio (A1R/A2aR)” value was 790^.
For the compound `Cc1ccc(-c2nc(N)nc3c(Cc4cccc(CN5CC6(COC6)C5)n4)cnn23)o1` [Example 7, 8-((6-((2-Oxa-6-azaspiro[3.3]heptan-6-yl)methyl)pyridin-2-yl)methyl)-4-(5-methylfuran-2-yl) pyrazolo[1,5-a][1,3,5]triazin-2-amine], in assay [1], the IC50 turned out to be 1.18 nM. For the same compound, in assay [2], the IC50 was found to be 7370 nM and the “IC50 ratio (A3R/A2aR)” value is reported as >10^3. Also, in assay [3], the IC50 came to 340 nM and the “IC50 ratio (A1R/A2aR)” value is 288^.
The compound `Cc1ccc(-c2nc(N)nc3c(Cc4cccc(COS(N)(=O)=O)n4)cnn23)o1` [Example 11, (6-((2-Amino-4-(5-methylfuran-2-yl)pyrazolo[1,5-a][1,3,5]triazin-8-yl)methyl)pyridin-2-yl)methyl sulfamate] came in with an IC50 in assay [1] of 1.86 nM. For the same compound, in assay [3], half-maximal inhibition (IC50) required 410 nM and the “IC50 ratio (A1R/A2aR)” value is 220^.
As for `Cc1ccc(-c2nc(N)nc3c(Cc4cccc(COCC5CC5)n4)cnn23)o1` [Example 17, 8-((6-((Cyclopropylmethoxy)methyl)pyridin-2-yl)methyl)-4-(5-methylfuran-2-yl)pyrazolo[1,5-a][1,3,5]triazin-2-amine], the IC50 in assay [1] was determined as 0.72 nM; in assay [2] it was 1390 nM. For the same compound, the “IC50 ratio (A3R/A2aR)” value in assay [2] is >10^3.
The corresponding values for `CCCc1cccc(Cc2cnn3c(-c4ccc(C)o4)nc(N)nc23)n1` [Example 20, 4-(5-Methylfuran-2-yl)-8-((6-propylpyridin-2-yl)methyl)pyrazolo[1,5-a][1,3,5]triazin-2-amine] are 0.09 nM, 280 nM and >10^3.
As for `Cc1ccc(-c2nc(N)nc3c(Oc4ccccn4)cnn23)o1` [Example 23, 4-(5-Methylfuran-2-yl)-8-(pyridin-2-yloxy)pyrazolo[1,5-a][1,3,5]triazin-2-amine], in assay [1], it took 0.58 nM to reach half-maximal inhibition (IC50). In other words, the sub-nanomolar range.
Same read-out and setting: then `Cc1ccc(-c2nc(N)nc3c(Nc4ccccc4F)cnn23)o1` [Example 31, N^8-(2-Fluorophenyl)-4-(5-methylfuran-2-yl)pyrazolo[1,5-a][1,3,5]triazine-2,8-diamine], with 3.53 nM.
Regarding `Nc1nc(-c2ccco2)n2ncc(Cc3ccccc3)c2n1` [Example 33, 8-Benzyl-4-(furan-2-yl)pyrazolo[1,5-a][1,3,5]triazin-2-amine], the figures for the IC50 in assay [1] and in assay [3] were 4.14 nM and 565 nM, respectively. For the same compound, the “IC50 ratio (A1R/A2aR)” value in assay [3] is reported as 136^.
Consider `Nc1nc(-c2ccco2)n2ncc(Cc3cccc(F)c3)c2n1` [Example 34, 8-(3-Fluorobenzyl)-4-(furan-2-yl)pyrazolo[1,5-a][1,3,5]triazin-2-amine], for which the IC50 in assay [1] was found to be 4.64 nM.

As a reminder, the IC50 is the concentration that inhibits the measured activity by half. A low value points to greater potency.
